{
  "source": "patent US5242938A",
  "about": "“Derivatives of virginiamycin M1” (Merck & Co., Inc., priority 1992, dated 1993)",
  "key": {"[1]": {"system": "Micrococcus luteus (Mb 1101, ATCC 9341)", "assay": "Agar diffusion disc assay, Micr 1101", "format": "cell-based", "details": "for Mean of triplicate zone size versus Micrococcus luteus: 25° C., ~18 hours", "method": "(§1) Cultures employed in evaluating antimicrobial activity included plant pathogens, human and animal opportunistic pathogens and selected laboratory strains having specific-antibiotic sensitivities or chromosomal or R-plasmid-mediated resistances. […] The agar diffusion MIC's were determined using the method described by Barry in Anitbiotics in Laboratory Medicine, 2nd Ed., Ed. V. Lorian, pp. 1-63, William & Wilkins, Baltimore, 1986. Each test compound was dissolved in methanol to a concentration of 1 mg/ml. Serial dilutions of these compounds were also made to determine an agar diffusion MIC. 20 μl of each dilution was pipetted on to 6 mm paper discs, air dried and placed onto the surface of an agar plate seeded with the appropriate bacteria (~10^6 cfu). Seeded agar plates were incubated overnight (~18 hours) at 25° C. Zone sizes were measured to the nearest mm. Each compound was tested in triplicate and the results shown represent the mean."}, "[2]": {"biological_target": "T1, CCK-B (guinea pig cortex) (Cavia porcellus, UniProt H0VZC5)", "T1 construct": "guinea pig cortical preparations; from tissue; host or cells: guinea pig brain cortex membranes", "T1 sequence (H0VZC5 1-426)": "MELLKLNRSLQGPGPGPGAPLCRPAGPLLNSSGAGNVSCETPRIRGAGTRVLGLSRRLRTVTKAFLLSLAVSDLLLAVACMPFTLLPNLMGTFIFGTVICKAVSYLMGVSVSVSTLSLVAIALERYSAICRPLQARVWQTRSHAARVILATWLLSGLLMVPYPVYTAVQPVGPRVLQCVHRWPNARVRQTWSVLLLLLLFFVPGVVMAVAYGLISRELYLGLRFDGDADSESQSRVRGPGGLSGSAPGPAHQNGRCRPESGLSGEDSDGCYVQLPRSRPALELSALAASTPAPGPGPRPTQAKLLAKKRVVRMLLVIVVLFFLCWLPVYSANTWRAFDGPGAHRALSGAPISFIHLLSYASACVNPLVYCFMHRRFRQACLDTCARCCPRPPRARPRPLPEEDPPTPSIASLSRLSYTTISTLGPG", "assay": "[3H]L-365,260 CCK-B selective antagonist ligand binding, brain membranes", "method": "(§2) The resulting supernatant was re-spun at 20,000×g for 20 minutes. […] Incubations were for 40 minutes at 4° C. and were terminated by filtration and washing with ice cold 100 mM saline. […] Incubations were for 30 minutes at room temperature and were terminated by filtration over GF/C filters and washing with 100 mM NaCl."}, "[3]": {"system": "Staphylococcus aureus (Mb 108, ATCC 6538P)", "assay": "Agar diffusion disc assay, Sta 108", "format": "cell-based", "details": "@ 20 g/disc", "method": "as §1"}, "CCK-A (rat pancreas) [4]": {"biological_target": "T2, CCK-A (rat pancreas) (Rattus norvegicus, UniProt P30551)", "T2 construct": "from tissue; host or cells: rat pancreas", "T2 sequence (P30551 1-444)": "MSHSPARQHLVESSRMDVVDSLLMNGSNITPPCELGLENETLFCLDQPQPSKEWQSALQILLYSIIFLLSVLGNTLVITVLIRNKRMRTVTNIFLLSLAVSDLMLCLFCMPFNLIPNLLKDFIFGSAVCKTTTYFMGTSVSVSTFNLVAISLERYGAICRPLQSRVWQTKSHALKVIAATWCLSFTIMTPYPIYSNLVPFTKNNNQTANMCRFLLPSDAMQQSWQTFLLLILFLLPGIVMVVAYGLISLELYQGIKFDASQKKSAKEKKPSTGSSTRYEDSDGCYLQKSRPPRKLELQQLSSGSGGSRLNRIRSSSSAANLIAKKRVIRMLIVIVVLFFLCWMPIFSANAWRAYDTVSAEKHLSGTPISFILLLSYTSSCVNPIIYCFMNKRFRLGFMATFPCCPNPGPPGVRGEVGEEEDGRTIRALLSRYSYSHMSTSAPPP", "assay": "[3H]L-364,718 CCK-A selective antagonist ligand binding, pancreas", "details": "read-out: CCK binding inhibition - IC50, [3H]L-364,718", "method": "as §2"}, "[5]": {"system": "Bacillus subtilis (Mb 964, ATCC 6633)", "assay": "Agar diffusion disc assay, Subt 964", "format": "cell-based", "details": "@ 20 g/disc", "method": "as §1"}, "[6]": {"system": "Escherichia coli (Mb 1418)", "assay": "Agar diffusion disc assay, Coli 1418", "format": "cell-based", "details": "@ 20 g/disc", "method": "as §1"}, "[7]": {"system": "En terobacter aergenes (Mb 835)", "assay": "Agar diffusion disc assay, Ent 835", "format": "cell-based", "details": "@ 20 g/disc", "method": "as §1"}, "CCK-A (rat pancreas) [8]": {"biological_target": "T2, CCK-A (rat pancreas)", "assay": "[125I]BHCCK-8 radioligand binding, rat pancreatic preparation", "details": "read-out: CCK binding inhibition - IC50, [125I]BHCCK", "method": "as §2"}, "[9]": {"biological_target": "T1, CCK-B (guinea pig cortex)", "assay": "[125I]BHCCK-8 radioligand binding, guinea pig cortical preparation", "details": "read-out: CCK binding inhibition - IC50, [125I]BHCCK", "method": "as §2"}, "[10]": {"system": "Salmonella gallinarum (Mb 1287)", "assay": "Agar diffusion disc assay, Salm 1287", "format": "cell-based", "details": "@ 20 g/disc", "method": "as §1"}, "Bacillus sp. (Mb 633)": {"system": "Bacillus sp. (Mb 633)", "assay": "Agar diffusion disc assay, Baci 633", "format": "cell-based", "details": "@ 20 g/disc", "method": "as §1"}, "[11]": {"system": "Streptococcus agalactiae (Mb 2875)", "assay": "Agar diffusion disc assay, Str 2875", "format": "cell-based", "details": "@ 20 µg/disc", "method": "as §1"}, "[12]": {"system": "Corynebacterium pseudodiphtheriticum (Mb 261, ATCC 9742)", "assay": "Agar diffusion disc assay, Cory 261", "format": "cell-based", "parameters": "Inhibition zone diameter, Cory 261: dose or concentration left out as unconfirmed", "method": "as §1"}, "[13]": {"system": "Staphylococcus aureus (Mb 2983)", "assay": "Agar diffusion disc assay, Sta 2983", "format": "cell-based", "details": "@ 20 g/disc", "method": "as §1"}, "[14]": {"system": "Streptococcus faecium (Mb 2820)", "assay": "Agar diffusion disc assay, Str 2820", "format": "cell-based", "parameters": "Inhibition zone diameter, Str 2820: dose or concentration left out as unconfirmed", "method": "as §1"}, "[15]": {"system": "Pseudomonas stutzeri (Mb 1231, ATCC 11607)", "assay": "Agar diffusion disc assay, Pseu 1231", "format": "cell-based", "details": "@ 20 g/disc", "method": "as §1"}},
  "data": [
    {"smiles": "CC1=C\\[C@@H](O)CC(O)Cc2nc(co2)C(=O)N2CCC=C2C(=O)O[C@H](C(C)C)[C@H](C)/C=C/C(=O)NC\\C=C\\1", "note": "(single isomer, unassigned) [Example 14B]", "values": [
      {"measurement": "Mean of triplicate zone size versus Micrococcus luteus", "setting": "[1]; 1.25 μg/disc", "value": 22, "unit": "mm"},
      {"measurement": "Mean of triplicate zone size versus Micrococcus luteus", "setting": "[1]; 2.50 μg/disc", "value": 25, "unit": "mm"},
      {"measurement": "Mean of triplicate zone size versus Micrococcus luteus", "setting": "[1]; 5.00 μg/disc", "value": 28, "unit": "mm"},
      {"measurement": "Mean of triplicate zone size versus Micrococcus luteus", "setting": "[1]; 10.0 μg/disc", "value": 30, "unit": "mm"},
      {"measurement": "Mean of triplicate zone size versus Micrococcus luteus", "setting": "[1]; 20.0 μg/disc", "value": 32, "unit": "mm"},
      {"measurement": "Inhibition zone diameter, Micr 1101", "setting": "[1]; @ 20 µg/disc", "value": 35, "unit": "mm"},
      {"measurement": "MIC", "setting": "[1]; read-out: Agar Diffusion MIC versus Micrococcus luteus", "value": 0.24, "unit": "µM"},
      {"measurement": "A.R. = agonist ratio = IC50([3H]L365,260)/IC50([125I]CCK)", "setting": "[2]", "value": 1},
      {"measurement": "IC50", "setting": "[2]; read-out: CCK binding inhibition - IC50, [3H]L-365,260", "value": 530, "unit": "nM"},
      {"measurement": "Inhibition zone diameter, Sta 108", "setting": "[3]", "value": 22, "unit": "mm"},
      {"measurement": "IC50", "setting": "CCK-A (rat pancreas) [4]", "value": "> 3000", "unit": "nM"},
      {"measurement": "Inhibition zone diameter, Subt 964", "setting": "[5]", "value": 0, "unit": "mm"},
      {"measurement": "Inhibition zone diameter, Coli 1418", "setting": "[6]", "value": 0, "unit": "mm"},
      {"measurement": "Inhibition zone diameter, Ent 835", "setting": "[7]", "value": 0, "unit": "mm"},
      {"measurement": "IC50", "setting": "CCK-A (rat pancreas) [8]", "value": "> 3000", "unit": "nM"},
      {"measurement": "IC50", "setting": "[9]", "value": 400, "unit": "nM"},
      {"measurement": "Inhibition zone diameter, Salm 1287", "setting": "[10]", "value": 0, "unit": "mm"},
      {"measurement": "Inhibition zone diameter, Baci 633", "setting": "Bacillus sp. (Mb 633)", "value": 0, "unit": "mm"},
      {"measurement": "Inhibition zone diameter, Str 2875", "setting": "[11]", "value": 18, "unit": "mm"},
      {"measurement": "Inhibition zone diameter, Cory 261", "setting": "[12]", "value": 26, "unit": "mm"},
      {"measurement": "Inhibition zone diameter, Sta 2983", "setting": "[13]", "value": 11, "unit": "mm"},
      {"measurement": "Inhibition zone diameter, Str 2820", "setting": "[14]", "value": 15, "unit": "mm"},
      {"measurement": "Inhibition zone diameter, Pseu 1231", "setting": "[15]", "value": 0, "unit": "mm"}
    ]}
  ]
}
